pIC50: −log10 of the molar value. Like-named read-outs stand apart in the source and are kept apart here. Numbered stars: 1 amine (or outer) side, 2 acyl side, 3 side chain; on linkers, the order of the positions; unused ones are H or OH. Square brackets hold non-standard residues; d marks the D form. Side chains are listed from the residue outwards. Peptide text beside a SMILES is read from it. * marks the point of attachment. C18 diacid = O=C(O)CCCCCCCCCCCCCCCCC(=O)*; γGlu = O=C(O)[C@H](CCC(=O)[*:2])N[*:1]; εLys = N[C@@H](CCCCN[*:1])C(=O)[*:2]; AEEA = NCCOCCOCC(=O)O; Aib = CC(C)(N)C(=O)O
Target: T1, human GLP-1 receptor (Homo sapiens, UniProt P43220)
T1 construct: expressed in transfected cells; host or cells: BHK cells, clone FCW467-12A/KZ10-1 (parent line BHKTS13), further transfected with CRE luciferase
Assay: GLP-1 receptor binding (SPA, displacement of 125I-GLP-1)
Conditions: for IC50 (high HSA): heading: Receptor binding affinity IC50
Outline: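 Tracer [125I]-GLP-1(7-36)NH2 at 0.06 nM final competed on hamster stably transfected cell membranes captured by WGA SPA beads; 120 min, 30 °C, scintillation count.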

[1] = Receptor binding affinity IC50 (high HSA), 2.0% HSA (high albumin)
[2] = Receptor binding affinity IC50 (low HSA), 0.001% HSA (low albumin)
[3] = 0.001% HSA (low albumin), read-out: Receptor binding affinity IC50 (low HSA)

T1 sequence (P43220 24-463): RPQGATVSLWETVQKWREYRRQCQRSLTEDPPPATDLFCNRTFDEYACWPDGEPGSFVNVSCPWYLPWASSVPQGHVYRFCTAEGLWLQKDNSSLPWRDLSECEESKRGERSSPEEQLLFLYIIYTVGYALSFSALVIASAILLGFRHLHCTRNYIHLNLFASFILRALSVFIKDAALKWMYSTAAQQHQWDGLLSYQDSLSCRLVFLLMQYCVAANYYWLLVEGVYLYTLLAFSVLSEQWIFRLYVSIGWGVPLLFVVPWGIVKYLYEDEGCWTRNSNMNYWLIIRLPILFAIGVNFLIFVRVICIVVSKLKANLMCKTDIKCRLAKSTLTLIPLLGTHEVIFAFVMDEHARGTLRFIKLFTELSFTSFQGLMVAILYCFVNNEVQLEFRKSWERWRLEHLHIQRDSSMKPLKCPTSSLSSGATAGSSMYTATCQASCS

Structure (SMILES)	pIC50 [1]	pIC50 [2]	pIC50 [3]	IC50 (high HSA) [1] [nM]
CC[C@H](C)[C@H](NC(=O)[C@H](Cc1ccccc1)NC(=O)[C@H](CCC(=O)O)NC(=O)[C@H](CCCCNC(=O)[C@@H](N)CCCCNC(=O)COCCOCCNC(=O)CC[C@H](NC(=O)CC[C@H](NC(=O)CCCCCCCCCCCOc1ccc(C(=O)O)cc1)C(=O)O)C(=O)O)NC(=O)[C@H](C)NC(=O)[C@H](C)NC(=O)[C@H](CCC(N)=O)NC(=O)CNC(=O)[C@H](CCC(=O)O)NC(=O)[C@H](CC(C)C)NC(=O)[C@H](Cc1ccc(O)cc1)NC(=O)[C@H](CO)NC(=O)[C@H](CO)NC(=O)[C@@H](NC(=O)[C@H](CC(=O)O)NC(=O)[C@H](CO)NC(=O)[C@@H](NC(=O)[C@H](Cc1ccccc1)NC(=O)[C@@H](NC(=O)CNC(=O)[C@H](CCC(=O)O)NC(=O)C(C)(C)NC(=O)[C@@H](N)Cc1c[nH]cn1)[C@@H](C)O)[C@@H](C)O)C(C)C)C(=O)N[C@@H](C)C(=O)N[C@@H](Cc1c[nH]c2ccccc12)C(=O)N[C@@H](CC(C)C)C(=O)N[C@H](C(=O)N[C@@H](CCCNC(=N)N)C(=O)NCC(=O)N[C@@H](CCCNC(=N)N)C(=O)N[C@@H](CCCCNC(=O)[C@@H](N)CCCCNC(=O)COCCOCCNC(=O)CC[C@H](NC(=O)CC[C@H](NC(=O)CCCCCCCCCCCOc1ccc(C(=O)O)cc1)C(=O)O)C(=O)O)C(=O)O)C(C)C [Example 15, N^ε26-[(2S)-2-amino-6-[[2-[2-[2-[[(4S)-4-carboxy-4-[[(4S)-4-carboxy-4-[12-(4-carboxyphenoxy)dodecanoylamino]butanoyl]amino]butanoyl]amino]ethoxy]ethoxy]acetyl]amino]hexanoyl], N^ε37-[(2S)-2-amino-6-[[2-[2-[2-[[(4S)-4-carboxy-4-[[(4S)-4-carboxy-4-[12-(4-carboxyphenoxy)dodecanoylamino]butanoyl]amino]butanoyl]amino]ethoxy]ethoxy]acetyl]amino]hexanoyl]-[Aib^8,Arg^34,Lys^37]-GLP-1-(7-37)-peptide]	6.52	9.46		
CC[C@H](C)[C@H](NC(=O)[C@H](Cc1ccccc1)NC(=O)[C@H](CCC(=O)O)NC(=O)[C@H](CCCCNC(=O)[C@@H](N)CCCCNC(=O)CC[C@H](NC(=O)CC[C@H](NC(=O)CC[C@H](NC(=O)CCCCCCCCCCCCCCC(=O)O)C(=O)O)C(=O)O)C(=O)O)NC(=O)[C@H](C)NC(=O)[C@H](C)NC(=O)[C@H](CCC(N)=O)NC(=O)CNC(=O)[C@H](CCC(=O)O)NC(=O)[C@H](CC(C)C)NC(=O)[C@H](Cc1ccc(O)cc1)NC(=O)[C@H](CO)NC(=O)[C@H](CO)NC(=O)[C@@H](NC(=O)[C@H](CC(=O)O)NC(=O)[C@H](CO)NC(=O)[C@@H](NC(=O)[C@H](Cc1ccccc1)NC(=O)[C@@H](NC(=O)CNC(=O)[C@H](CCC(=O)O)NC(=O)C(C)(C)NC(=O)[C@@H](N)Cc1c[nH]cn1)[C@@H](C)O)[C@@H](C)O)C(C)C)C(=O)N[C@@H](C)C(=O)N[C@@H](Cc1c[nH]c2ccccc12)C(=O)N[C@@H](CC(C)C)C(=O)N[C@H](C(=O)N[C@@H](CCCNC(=N)N)C(=O)NCC(=O)N[C@@H](CCCNC(=N)N)C(=O)N[C@@H](CCCCNC(=O)[C@@H](N)CCCCNC(=O)CC[C@H](NC(=O)CC[C@H](NC(=O)CC[C@H](NC(=O)CCCCCCCCCCCCCCC(=O)O)C(=O)O)C(=O)O)C(=O)O)C(=O)O)C(C)C [Example 13, N^ε26-[(2S)-2-amino-6-[[(4S)-4-carboxy-4-[[(4S)-4-carboxy-4-[[(4S)-4-carboxy-4-(15-carboxypentadecanoylamino)butanoyl]amino]butanoyl]amino]butanoyl]amino]hexanoyl], N^ε37-[(2S)-2-amino-6-[[(4S)-4-carboxy-4-[[(4S)-4-carboxy-4-[[(4S)-4-carboxy-4-(15-carboxypentadecanoylamino)butanoyl]amino]butanoyl]amino]butanoyl]amino]hexanoyl]-[Aib^8,Arg^34,Lys^37]-GLP-1-(7-37)-peptide]			9.12	545
CC[C@H](C)[C@H](NC(=O)[C@H](Cc1ccccc1)NC(=O)[C@H](CCC(=O)O)NC(=O)[C@H](CCCCNC(=O)[C@@H](N)CCCCNC(=O)[C@@H](N)CCCCNC(=O)CC[C@H](NC(=O)CC[C@H](NC(=O)CCCCCCCCCCCOc1ccc(C(=O)O)cc1)C(=O)O)C(=O)O)NC(=O)[C@H](C)NC(=O)[C@H](C)NC(=O)[C@H](CCC(N)=O)NC(=O)CNC(=O)[C@H](CCC(=O)O)NC(=O)[C@H](CC(C)C)NC(=O)[C@H](Cc1ccc(O)cc1)NC(=O)[C@H](CO)NC(=O)[C@H](CO)NC(=O)[C@@H](NC(=O)[C@H](CC(=O)O)NC(=O)[C@H](CO)NC(=O)[C@@H](NC(=O)[C@H](Cc1ccccc1)NC(=O)[C@@H](NC(=O)CNC(=O)[C@H](CCC(=O)O)NC(=O)C(C)(C)NC(=O)[C@@H](N)Cc1c[nH]cn1)[C@@H](C)O)[C@@H](C)O)C(C)C)C(=O)N[C@@H](C)C(=O)N[C@@H](Cc1c[nH]c2ccccc12)C(=O)N[C@@H](CC(C)C)C(=O)N[C@H](C(=O)N[C@@H](CCCNC(=N)N)C(=O)NCC(=O)N[C@@H](CCCNC(=N)N)C(=O)N[C@@H](CCCCNC(=O)[C@@H](N)CCCCNC(=O)[C@@H](N)CCCCNC(=O)CC[C@H](NC(=O)CC[C@H](NC(=O)CCCCCCCCCCCOc1ccc(C(=O)O)cc1)C(=O)O)C(=O)O)C(=O)O)C(C)C [Example 16, N^ε26-[(2S)-2-amino-6-[[(2S)-2-amino-6-[[(4S)-4-carboxy-4-[[(4S)-4-carboxy-4-[12-(4-carboxyphenoxy)dodecanoylamino]butanoyl]amino]butanoyl]amino]hexanoyl]amino]hexanoyl], N^ε37-[(2S)-2-amino-6-[[(2S)-2-amino-6-[[(4S)-4-carboxy-4-[[(4S)-4-carboxy-4-[12-(4-carboxyphenoxy)dodecanoylamino]butanoyl]amino]butanoyl]amino]hexanoyl]amino]hexanoyl]-[Aib^8,Arg^34,Lys^37]-GLP-1-(7-37)-peptide]	6.70	9.62		
CC[C@H](C)[C@H](NC(=O)[C@H](Cc1ccccc1)NC(=O)[C@H](CCC(=O)O)NC(=O)[C@H](CCCCNC(=O)[C@@H](N)CCCCNC(=O)COCCOCCNC(=O)COCCOCCNC(=O)CC[C@H](NC(=O)CCCCCCCCCCCCCCCCC(=O)O)C(=O)O)NC(=O)[C@H](C)NC(=O)[C@H](C)NC(=O)[C@H](CCC(N)=O)NC(=O)[C@H](CCC(=O)O)NC(=O)[C@H](CCC(=O)O)NC(=O)[C@H](CC(C)C)NC(=O)[C@H](Cc1ccc(O)cc1)NC(=O)[C@H](CO)NC(=O)[C@H](CO)NC(=O)[C@@H](NC(=O)[C@H](CC(=O)O)NC(=O)[C@H](CO)NC(=O)[C@@H](NC(=O)[C@H](Cc1ccccc1)NC(=O)[C@@H](NC(=O)CNC(=O)[C@H](CCC(=O)O)NC(=O)C(C)(C)NC(=O)[C@@H](N)Cc1c[nH]cn1)[C@@H](C)O)[C@@H](C)O)C(C)C)C(=O)N[C@@H](C)C(=O)N[C@@H](Cc1c[nH]c2ccccc12)C(=O)N[C@@H](CC(C)C)C(=O)N[C@H](C(=O)N[C@@H](CCC(N)=O)C(=O)NCC(=O)N[C@@H](CCCNC(=N)N)C(=O)N[C@@H](CCCCNC(=O)[C@@H](N)CCCCNC(=O)COCCOCCNC(=O)COCCOCCNC(=O)CC[C@H](NC(=O)CCCCCCCCCCCCCCCCC(=O)O)C(=O)O)C(=O)O)C(C)C [Example 28, N^ε26-[(2S)-2-amino-6-[[2-[2-[2-[[2-[2-[2-[[(4S)-4-carboxy-4-(17-carboxyheptadecanoylamino)butanoyl]amino]ethoxy]ethoxy]acetyl]amino]ethoxy]ethoxy]acetyl]amino]hexanoyl], N^ε37-[(2S)-2-amino-6-[[2-[2-[2-[[2-[2-[2-[[(4S)-4-carboxy-4-(17-carboxyheptadecanoylamino)butanoyl]amino]ethoxy]ethoxy]acetyl]amino]ethoxy]ethoxy]acetyl]amino]hexanoyl]-[Aib^8,Glu^22,Gln^34, Lys^37]-GLP-1-(7-37)-peptide] (H-H[Aib]EGTFTSDVSSYLEEQAAK([εLys-AEEA-AEEA-γGlu-C18 diacid])EFIAWLVQGRK([εLys-AEEA-AEEA-γGlu-C18 diacid])-OH; N-terminus and C-terminus assumed)			8.78	≥ 1000
CC[C@H](C)[C@H](NC(=O)[C@H](Cc1ccccc1)NC(=O)[C@H](CCC(=O)O)NC(=O)[C@H](CCCCNC(=O)[C@@H](N)CCCCNC(=O)[C@@H](N)CCCCNC(=O)CC[C@H](NC(=O)CC[C@H](NC(=O)CCCCCCCCCCCCCCC(=O)O)C(=O)O)C(=O)O)NC(=O)[C@H](C)NC(=O)[C@H](C)NC(=O)[C@H](CCC(N)=O)NC(=O)CNC(=O)[C@H](CCC(=O)O)NC(=O)[C@H](CC(C)C)NC(=O)[C@H](Cc1ccc(O)cc1)NC(=O)[C@H](CO)NC(=O)[C@H](CO)NC(=O)[C@@H](NC(=O)[C@H](CC(=O)O)NC(=O)[C@H](CO)NC(=O)[C@@H](NC(=O)[C@H](Cc1ccccc1)NC(=O)[C@@H](NC(=O)CNC(=O)[C@H](CCC(=O)O)NC(=O)C(C)(C)NC(=O)[C@@H](N)Cc1c[nH]cn1)[C@@H](C)O)[C@@H](C)O)C(C)C)C(=O)N[C@@H](C)C(=O)N[C@@H](Cc1c[nH]c2ccccc12)C(=O)N[C@@H](CC(C)C)C(=O)N[C@H](C(=O)N[C@@H](CCCNC(=N)N)C(=O)NCC(=O)N[C@@H](CCCNC(=N)N)C(=O)N[C@@H](CCCCNC(=O)[C@@H](N)CCCCNC(=O)[C@@H](N)CCCCNC(=O)CC[C@H](NC(=O)CC[C@H](NC(=O)CCCCCCCCCCCCCCC(=O)O)C(=O)O)C(=O)O)C(=O)O)C(C)C [Example 12, N^ε26-[(2S)-2-amino-6-[[(2S)-2-amino-6-[[(4S)-4-carboxy-4-[[(4S)-4-carboxy-4-(15-carboxypentadecanoylamino)butanoyl]amino]butanoyl]amino]hexanoyl]amino]hexanoyl], N^ε37-[(2S)-2-amino-6-[[(2S)-2-amino-6-[[(4S)-4-carboxy-4-[[(4S)-4-carboxy-4-(15-carboxypentadecanoylamino)butanoyl]amino]butanoyl]amino]hexanoyl]amino]hexanoyl]-[Aib^8,Arg^34, Lys^37]-GLP-1-(7-37)-peptide]			9.48	222
